Results: patent publication US9884832B2 (priority 2011, dated 2018)
Like-named read-outs stand apart in the source and are kept apart here.

Tests used:
[1] = target: AM2 V27A (valine→alanine mutation at residue 27 in the M2 protein) (Influenza A virus, UniProt P0DOF5, V27A); assay type: cell-based, influenza virus A/Udorn/72
[2] = target: AM2 S31N (serine→asparagine mutation at residue 31 in the M2 protein) (Influenza A virus, UniProt P0DOF5, S31N); assay type: cell-based, influenza virus A/Udorn/72

| Structure (SMILES) | V27A OOcyte Inhibition at 100 uM (%) ([1]; pH 5.5) | S31N OOcyte Inhibition at 100 uM (%) ([2]; pH 5.5) | V27A OOcyte Inhibition at 100 uM (%) [1] | S31N OOcyte Inhibition at 100 uM (%) [2] |
| --- | --- | --- | --- | --- |
| Nc1ncc(CNC23CC4CC(CC(C4)C2)C3)cn1 [Example 75, 5-(Adamantan-1-ylaminomethyl)-pyrimidin-2-ylamine] | B (key: (A)=31-95%; (B)=0-30%) | B (key: (A)=31-95%; (B)=0-30%) | – | – |
| COc1ccc(CNC23CC4CC(CC(C4)C2)C3)s1 [Example 75a, N-((5-methoxythiophen-2-yl)methyl)adamantan-1-amine] | – | – | B (key: (A)=31-95%; (B)=0-30%) | A (key: (A)=31-95%; (B)=0-30%) |
| Cc1ccsc1CNC12CC3CC(CC(C3)C1)C2 [Example 76a, N-((3-methylthiophen-2-yl)methyl)adamantan-1-amine] | – | – | B (key: (A)=31-95%; (B)=0-30%) | B (key: (A)=31-95%; (B)=0-30%) |
| OCc1ccc(CNC23CC4CC(CC(C4)C2)C3)o1 [Example 77, [5-(Adamantan-1-ylaminomethyl)-furan-2-yl]methanol] | B (key: (A)=31-95%; (B)=0-30%) | B (key: (A)=31-95%; (B)=0-30%) | – | – |
| c1csc(-c2ccc(CNC34CC5CC(CC(C5)C3)C4)s2)c1 [Example 78, N-([2,2′-Bithiophen]-5-ylmethyl)adamantan-1-amine] | B (key: (A)=31-95%; (B)=0-30%) | A (key: (A)=31-95%; (B)=0-30%) | – | – |
| Cc1ccc(CNC23CC4CC(CC(C4)C2)C3)s1 [Example 78a, N-((5-methylthiophen-2-yl)methyl)adamantan-1-amine] | – | – | A (key: (A)=31-95%; (B)=0-30%) | A (key: (A)=31-95%; (B)=0-30%) |
| c1cc2cc(CNC34CC5CC(CC(C5)C3)C4)sc2s1 [Example 79, Adamantan-1-yl-thieno[2,3-b]thiophen-2-ylmethyl-amine] | B (key: (A)=31-95%; (B)=0-30%) | A (key: (A)=31-95%; (B)=0-30%) | – | – |
| Clc1ccc(CNC23CC4CC(CC(C4)C2)C3)s1 [Example 79a, N-((5-chlorothiophen-2-yl)methyl)adamantan-1-amine] | – | – | B (key: (A)=31-95%; (B)=0-30%) | A (key: (A)=31-95%; (B)=0-30%) |
| c1cc2[nH]c(CNC34CC5CC(CC(C5)C3)C4)cc2s1 [Example 80, Adamantan-1-yl-(4H-thieno[3,2-b]pyrrol-5-ylmethyl)-amine] | B (key: (A)=31-95%; (B)=0-30%) | A (key: (A)=31-95%; (B)=0-30%) | – | – |
| COc1cc(Cl)sc1CNC12CC3CC(CC(C3)C1)C2 [Example 80a] | – | – | B (key: (A)=31-95%; (B)=0-30%) | B (key: (A)=31-95%; (B)=0-30%) |
| c1cc2sc(CNC34CC5CC(CC(C5)C3)C4)cc2s1 [Example 81, Adamantan-1-yl-thieno[3,2-b]thiophen-2-ylmethyl-amine] | B (key: (A)=31-95%; (B)=0-30%) | A (key: (A)=31-95%; (B)=0-30%) | – | – |
| Brc1ccc(CNC23CC4CC(CC(C4)C2)C3)s1 [Example 81a, N-((5-Bromothiophen-2-yl)methyl)adamantan-1-amine] | – | – | B (key: (A)=31-95%; (B)=0-30%) | A (key: (A)=31-95%; (B)=0-30%) |
| CC(NC12CC3CC(CC(C3)C1)C2)c1ccc(I)s1 (stereo not drawn) [Example 82a, N-(1-(5-iodothiophen-2-yl)ethyl)adamantan-1-amine] | – | – | A (key: (A)=31-95%; (B)=0-30%) | B (key: (A)=31-95%; (B)=0-30%) |
| c1cc2cc(CNC34CC5CC(CC(C5)C3)C4)sc2o1 [Example 83, Adamantan-1-yl-thieno[2,3-b]furan-5-ylmethyl-amine] | B (key: (A)=31-95%; (B)=0-30%) | A (key: (A)=31-95%; (B)=0-30%) | – | – |
| Brc1nc(CNC23CC4CC(CC(C4)C2)C3)cs1 [Example 83a, N-((2-bromothiazol-4-yl)methyl)adamantan-1-amine] | – | – | B (key: (A)=31-95%; (B)=0-30%) | A (key: (A)=31-95%; (B)=0-30%) |
| c1c(CNC23CC4CC(CC(C4)C2)C3)sc2c1CSC2 [Example 84, Adamantan-1-yl-(4,6-dihydro-thieno[3,4-b]thiophen-2-ylmethyl)-amine] | B (key: (A)=31-95%; (B)=0-30%) | A (key: (A)=31-95%; (B)=0-30%) | – | – |
| [O-][S+]1Cc2cc(CNC34CC5CC(CC(C5)C3)C4)sc2C1 (stereo not drawn) [Example 85, Adamantan-1-yl-(5-oxo-5,6-dihydro-4H-5M-thieno[3,4-b]thiophen-2-ylmethyl)-amine] | B (key: (A)=31-95%; (B)=0-30%) | B (key: (A)=31-95%; (B)=0-30%) | – | – |

| Structure (SMILES) | V27A OOcyte Inhibition at 100 uM (%) ([1]; pH 5.5) | S31N OOcyte Inhibition at 100 uM (%) ([2]; pH 5.5) | V27A OOcyte Inhibition at 100 uM (%) [1] | S31N OOcyte Inhibition at 100 uM (%) [2] |
| --- | --- | --- | --- | --- |
| c1cn2cc(CNC34CC5CC(CC(C5)C3)C4)nc2s1 [Example 86, Adamantan-1-yl-imidazo[2,1-b]thiazol-6-ylmethyl-amine] | B (key: (A)=31-95%; (B)=0-30%) | A (key: (A)=31-95%; (B)=0-30%) | – | – |
| Clc1c(CNC23CC4CC(CC(C4)C2)C3)nc2sccn12 [Example 87, Adamantan-1-yl-(5-chloro-imidazo[2,1-b]thiazol-6-ylmethyl)-amine] | B (key: (A)=31-95%; (B)=0-30%) | B (key: (A)=31-95%; (B)=0-30%) | – | – |
| c1ccc2sc(CNC34CC5CC(CC(C5)C3)C4)cc2c1 [Example 88, Adamantan-1-yl-benzo[b]thiophen-2-ylmethyl-amine] | B (key: (A)=31-95%; (B)=0-30%) | A (key: (A)=31-95%; (B)=0-30%) | – | – |
| c1ccc2sc(CNC34CC5CC(CC(C5)C3)C4)nc2c1 [Example 91, Adamantan-1-yl-benzothiazol-2-ylmethyl-amine] | B (key: (A)=31-95%; (B)=0-30%) | A (key: (A)=31-95%; (B)=0-30%) | – | – |
| c1ccc2[nH]c(CNC34CC5CC(CC(C5)C3)C4)nc2c1 [Example 92, Adamantan-1-yl-(1H-benzoimidazol-2-ylmethyl)-amine] | B (key: (A)=31-95%; (B)=0-30%) | A (key: (A)=31-95%; (B)=0-30%) | – | – |
| CC(NC12CC3CC(CC(C3)C1)C2)c1ccc(C#N)s1 (stereo not drawn) [Example 92a, 5-(1-(adamantan-1-ylamino)ethyl)thiophene-2-carbonitrile] | – | – | B (key: (A)=31-95%; (B)=0-30%) | B (key: (A)=31-95%; (B)=0-30%) |
| c1ccc2[nH]c(CNC34CC5CC(CC(C5)C3)C4)cc2c1 [Example 93, Adamantan-1-yl-(1H-indol-2-ylmethyl)-amine] | B (key: (A)=31-95%; (B)=0-30%) | A (key: (A)=31-95%; (B)=0-30%) | – | – |
| c1nc2ccc(CNC34CC5CC(CC(C5)C3)C4)cc2[nH]1 [Example 94, Adamantan-1-yl-(3H-benzoimidazol-5-ylmethyl)-amine] | B (key: (A)=31-95%; (B)=0-30%) | B (key: (A)=31-95%; (B)=0-30%) | – | – |
| c1cc2cn[nH]c2cc1CNC12CC3CC(CC(C3)C1)C2 [Example 95, Adamantan-1-yl-(1H-indazol-6-ylmethyl)-amine] | A (key: (A)=31-95%; (B)=0-30%) | B (key: (A)=31-95%; (B)=0-30%) | – | – |
| c1cc(CNC23CC4CC(CC(C4)C2)C3)c2cc[nH]c2c1 [Example 96, Adamantan-1-yl-(1H-indol-4-ylmethyl)-amine] | A (key: (A)=31-95%; (B)=0-30%) | B (key: (A)=31-95%; (B)=0-30%) | – | – |
| Oc1c(CNC23CC4CC(CC(C4)C2)C3)ccc2ccccc12 [Example 97, 2-(Adamantan-1-ylaminomethyl)-naphthalen-1-ol] | B (key: (A)=31-95%; (B)=0-30%) | A (key: (A)=31-95%; (B)=0-30%) | – | – |
| Cc1ccc(C(C)NC23CC4CC(CC(C4)C2)C3)s1 (stereo not drawn) [Example 97a, N-(1-(5-methylthiophen-2-yl)ethyl)adamantan-1-amine] | – | – | B (key: (A)=31-95%; (B)=0-30%) | B (key: (A)=31-95%; (B)=0-30%) |
| c1ccc2nc(CNC34CC5CC(CC(C5)C3)C4)ccc2c1 [Example 98, Adamantan-1-yl-quinolin-2-ylmethyl-amine] | B (key: (A)=31-95%; (B)=0-30%) | A (key: (A)=31-95%; (B)=0-30%) | – | – |
| CCc1ccc(CNC23CC4CC(CC(C4)C2)C3)s1 [Example 98a, N-((5-ethylthiophen-2-yl)methyl)adamantan-1-amine] | – | – | B (key: (A)=31-95%; (B)=0-30%) | A (key: (A)=31-95%; (B)=0-30%) |
| Oc1ccc(CNC2C3CC4CC(C3)CC2C4)cc1 (stereo not drawn) [Example 99, 4-(Adamantan-2-ylaminomethyl)-phenol] | B (key: (A)=31-95%; (B)=0-30%) | B (key: (A)=31-95%; (B)=0-30%) | – | – |
| Cc1nc(CNC23CC4CC(CC(C4)C2)C3)c[nH]1 [Example 99a, N-((2-methyl-1H-imidazol-4-yl)methyl)adamantan-1-amine] | – | – | B (key: (A)=31-95%; (B)=0-30%) | B (key: (A)=31-95%; (B)=0-30%) |
